Values quoted from earlier work in patent US9857359B2, “Methods for determining drug efficacy using cereblon-associated proteins” (CELGENE CORPORATION, priority 2012, dated 2018).

Biological target: CRBN (Homo sapiens, UniProt Q96SW2)
Conditions: in vitro; Ito et al., Science 2010; cited from earlier work

Chain of CRBN (Q96SW2 whole entry): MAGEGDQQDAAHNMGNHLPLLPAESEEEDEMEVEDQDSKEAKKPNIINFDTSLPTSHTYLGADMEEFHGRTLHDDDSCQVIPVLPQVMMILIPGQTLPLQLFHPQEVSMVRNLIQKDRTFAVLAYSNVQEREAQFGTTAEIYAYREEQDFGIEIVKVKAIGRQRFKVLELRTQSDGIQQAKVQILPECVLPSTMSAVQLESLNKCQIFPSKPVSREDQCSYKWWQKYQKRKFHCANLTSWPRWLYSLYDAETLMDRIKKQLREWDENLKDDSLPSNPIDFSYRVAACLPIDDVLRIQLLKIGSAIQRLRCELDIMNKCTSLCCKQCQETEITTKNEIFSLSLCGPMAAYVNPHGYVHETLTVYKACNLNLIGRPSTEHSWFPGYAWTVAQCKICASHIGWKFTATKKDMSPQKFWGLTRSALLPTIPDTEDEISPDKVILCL
Chain of CRBN (Q16531 whole entry partner): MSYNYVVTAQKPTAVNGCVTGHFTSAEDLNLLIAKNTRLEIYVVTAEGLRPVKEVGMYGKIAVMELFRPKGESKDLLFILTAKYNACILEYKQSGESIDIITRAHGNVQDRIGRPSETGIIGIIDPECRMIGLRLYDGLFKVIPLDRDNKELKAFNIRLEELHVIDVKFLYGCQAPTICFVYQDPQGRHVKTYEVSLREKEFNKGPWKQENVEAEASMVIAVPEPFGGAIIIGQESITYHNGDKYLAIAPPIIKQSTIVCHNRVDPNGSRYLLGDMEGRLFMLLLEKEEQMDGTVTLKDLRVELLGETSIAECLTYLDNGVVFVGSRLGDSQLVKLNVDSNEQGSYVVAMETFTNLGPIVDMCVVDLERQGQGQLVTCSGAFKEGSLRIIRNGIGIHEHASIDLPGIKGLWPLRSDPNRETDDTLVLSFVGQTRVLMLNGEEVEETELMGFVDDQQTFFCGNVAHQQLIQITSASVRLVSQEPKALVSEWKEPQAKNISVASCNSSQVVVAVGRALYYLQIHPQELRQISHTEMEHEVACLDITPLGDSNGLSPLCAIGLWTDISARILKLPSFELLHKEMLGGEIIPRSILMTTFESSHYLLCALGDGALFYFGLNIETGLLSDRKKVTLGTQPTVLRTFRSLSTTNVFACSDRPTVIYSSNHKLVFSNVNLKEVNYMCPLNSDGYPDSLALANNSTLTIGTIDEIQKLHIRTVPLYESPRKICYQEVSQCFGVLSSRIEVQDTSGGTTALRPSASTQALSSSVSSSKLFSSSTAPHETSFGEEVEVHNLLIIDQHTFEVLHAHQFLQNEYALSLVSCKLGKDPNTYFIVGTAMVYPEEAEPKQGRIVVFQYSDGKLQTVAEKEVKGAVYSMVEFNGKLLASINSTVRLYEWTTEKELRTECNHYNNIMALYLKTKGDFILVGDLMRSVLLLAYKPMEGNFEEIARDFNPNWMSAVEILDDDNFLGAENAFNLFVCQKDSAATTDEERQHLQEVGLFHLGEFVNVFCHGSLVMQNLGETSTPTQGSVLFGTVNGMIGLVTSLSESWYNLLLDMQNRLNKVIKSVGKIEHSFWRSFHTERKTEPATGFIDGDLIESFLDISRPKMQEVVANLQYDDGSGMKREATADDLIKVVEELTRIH
Chain of CRBN (Q13619 whole entry partner): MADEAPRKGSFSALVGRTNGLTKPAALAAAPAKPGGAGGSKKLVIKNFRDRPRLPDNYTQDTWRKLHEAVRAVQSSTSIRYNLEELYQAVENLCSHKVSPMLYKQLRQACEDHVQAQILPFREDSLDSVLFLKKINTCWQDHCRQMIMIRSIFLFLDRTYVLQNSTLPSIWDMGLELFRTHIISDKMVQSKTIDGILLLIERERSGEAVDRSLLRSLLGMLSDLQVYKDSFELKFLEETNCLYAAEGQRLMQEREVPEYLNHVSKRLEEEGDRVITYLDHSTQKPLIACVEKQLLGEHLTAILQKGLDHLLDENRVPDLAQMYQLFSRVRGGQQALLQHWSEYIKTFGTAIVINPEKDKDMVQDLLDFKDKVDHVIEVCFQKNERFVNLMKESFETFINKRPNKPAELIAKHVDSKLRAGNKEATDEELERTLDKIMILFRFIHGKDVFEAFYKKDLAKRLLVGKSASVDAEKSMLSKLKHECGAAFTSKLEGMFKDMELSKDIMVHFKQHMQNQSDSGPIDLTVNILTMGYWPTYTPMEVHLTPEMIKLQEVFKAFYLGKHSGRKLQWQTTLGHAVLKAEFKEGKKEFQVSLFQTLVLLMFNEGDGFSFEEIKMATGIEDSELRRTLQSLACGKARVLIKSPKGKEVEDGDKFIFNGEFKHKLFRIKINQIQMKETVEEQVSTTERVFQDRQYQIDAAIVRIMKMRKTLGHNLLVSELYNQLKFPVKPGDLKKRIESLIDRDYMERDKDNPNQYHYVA
Chain of CRBN (P62877 whole entry partner): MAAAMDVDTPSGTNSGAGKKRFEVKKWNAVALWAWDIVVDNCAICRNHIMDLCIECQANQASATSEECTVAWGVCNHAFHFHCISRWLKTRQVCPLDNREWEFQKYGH

## O=C1CCC(N2C(=O)c3ccccc3C2=O)C(=O)N1 (stereo not shown) [thalidomide]
  Auto-ubiquitination of CRBN: inhibit auto-ubiquitination of CRBN in vitro
